Oligonucleotides are given in HELM: sugar(base)linkage, 5' to 3'; d 2'-deoxyribose, r ribose, m 2'-O-methylribose, p phosphate. ss, as = sense and antisense strand
molecular target: UBE2N; assay: reporter assay of Huesken 2005; settings: siRNA
Further: test concentration or dose not given here.

Substance	normalised inhibition (eCFP-eYFP dual reporter) [%]
RNA1{r(A)p.r(A)p.r(A)p.r(C)p.r(U)p.r(U)p.r(G)p.r(A)p.r(A)p.r(C)p.r(U)p.r(A)p.r(U)p.r(U)p.r(C)p.r(C)p.r(U)p.r(U)p.r(C)p.d(T)p.d(T)}|RNA2{r(G)p.r(A)p.r(A)p.r(G)p.r(G)p.r(A)p.r(A)p.r(U)p.r(A)p.r(G)p.r(U)p.r(U)p.r(C)p.r(A)p.r(A)p.r(G)p.r(U)p.r(U)p.r(U)p.d(A)p.d(A)}$$$RNA1{StrandType:ss}|RNA2{StrandType:as}$	43.6
RNA1{r(A)p.r(A)p.r(A)p.r(U)p.r(G)p.r(A)p.r(U)p.r(G)p.r(U)p.r(A)p.r(G)p.r(C)p.r(G)p.r(G)p.r(A)p.r(G)p.r(C)p.r(A)p.r(G)p.d(T)p.d(T)}|RNA2{r(C)p.r(U)p.r(G)p.r(C)p.r(U)p.r(C)p.r(C)p.r(G)p.r(C)p.r(U)p.r(A)p.r(C)p.r(A)p.r(U)p.r(C)p.r(A)p.r(U)p.r(U)p.r(U)p.d(G)p.d(C)}$$$RNA1{StrandType:ss}|RNA2{StrandType:as}$	43.2
RNA1{r(A)p.r(A)p.r(G)p.r(C)p.r(C)p.r(A)p.r(U)p.r(A)p.r(G)p.r(A)p.r(A)p.r(A)p.r(C)p.r(A)p.r(G)p.r(C)p.r(U)p.r(A)p.r(G)p.d(T)p.d(T)}|RNA2{r(C)p.r(U)p.r(A)p.r(G)p.r(C)p.r(U)p.r(G)p.r(U)p.r(U)p.r(U)p.r(C)p.r(U)p.r(A)p.r(U)p.r(G)p.r(G)p.r(C)p.r(U)p.r(U)p.d(G)p.d(G)}$$$RNA1{StrandType:ss}|RNA2{StrandType:as}$	90.4
RNA1{r(A)p.r(A)p.r(G)p.r(C)p.r(C)p.r(C)p.r(A)p.r(A)p.r(G)p.r(C)p.r(C)p.r(A)p.r(U)p.r(A)p.r(G)p.r(A)p.r(A)p.r(A)p.r(C)p.d(T)p.d(T)}|RNA2{r(G)p.r(U)p.r(U)p.r(U)p.r(C)p.r(U)p.r(A)p.r(U)p.r(G)p.r(G)p.r(C)p.r(U)p.r(U)p.r(G)p.r(G)p.r(G)p.r(C)p.r(U)p.r(U)p.d(C)p.d(G)}$$$RNA1{StrandType:ss}|RNA2{StrandType:as}$	61.1
RNA1{r(A)p.r(A)p.r(G)p.r(C)p.r(C)p.r(G)p.r(A)p.r(A)p.r(C)p.r(C)p.r(A)p.r(G)p.r(A)p.r(U)p.r(G)p.r(A)p.r(G)p.r(A)p.r(G)p.d(T)p.d(T)}|RNA2{r(C)p.r(U)p.r(C)p.r(U)p.r(C)p.r(A)p.r(U)p.r(C)p.r(U)p.r(G)p.r(G)p.r(U)p.r(U)p.r(C)p.r(G)p.r(G)p.r(C)p.r(U)p.r(U)p.d(T)p.d(G)}$$$RNA1{StrandType:ss}|RNA2{StrandType:as}$	88.3
RNA1{r(A)p.r(A)p.r(G)p.r(U)p.r(G)p.r(G)p.r(U)p.r(C)p.r(C)p.r(C)p.r(C)p.r(A)p.r(G)p.r(C)p.r(A)p.r(C)p.r(U)p.r(G)p.r(C)p.d(T)p.d(T)}|RNA2{r(G)p.r(C)p.r(A)p.r(G)p.r(U)p.r(G)p.r(C)p.r(U)p.r(G)p.r(G)p.r(G)p.r(G)p.r(A)p.r(C)p.r(C)p.r(A)p.r(C)p.r(U)p.r(U)p.d(A)p.d(T)}$$$RNA1{StrandType:ss}|RNA2{StrandType:as}$	48.2
RNA1{r(A)p.r(A)p.r(U)p.r(G)p.r(U)p.r(A)p.r(G)p.r(A)p.r(C)p.r(A)p.r(A)p.r(G)p.r(U)p.r(U)p.r(G)p.r(G)p.r(G)p.r(A)p.r(A)p.d(T)p.d(T)}|RNA2{r(U)p.r(U)p.r(C)p.r(C)p.r(C)p.r(A)p.r(A)p.r(C)p.r(U)p.r(U)p.r(G)p.r(U)p.r(C)p.r(U)p.r(A)p.r(C)p.r(A)p.r(U)p.r(U)p.d(A)p.d(G)}$$$RNA1{StrandType:ss}|RNA2{StrandType:as}$	93.8
RNA1{r(A)p.r(C)p.r(C)p.r(A)p.r(A)p.r(A)p.r(A)p.r(U)p.r(U)p.r(U)p.r(A)p.r(U)p.r(C)p.r(A)p.r(U)p.r(C)p.r(C)p.r(U)p.r(A)p.d(T)p.d(T)}|RNA2{r(U)p.r(A)p.r(G)p.r(G)p.r(A)p.r(U)p.r(G)p.r(A)p.r(U)p.r(A)p.r(A)p.r(A)p.r(U)p.r(U)p.r(U)p.r(U)p.r(G)p.r(G)p.r(U)p.d(C)p.d(A)}$$$RNA1{StrandType:ss}|RNA2{StrandType:as}$	81.6
RNA1{r(A)p.r(C)p.r(C)p.r(A)p.r(G)p.r(U)p.r(U)p.r(C)p.r(C)p.r(U)p.r(G)p.r(G)p.r(C)p.r(A)p.r(U)p.r(C)p.r(A)p.r(A)p.r(A)p.d(T)p.d(T)}|RNA2{r(U)p.r(U)p.r(U)p.r(G)p.r(A)p.r(U)p.r(G)p.r(C)p.r(C)p.r(A)p.r(G)p.r(G)p.r(A)p.r(A)p.r(C)p.r(U)p.r(G)p.r(G)p.r(U)p.d(T)p.d(C)}$$$RNA1{StrandType:ss}|RNA2{StrandType:as}$	97.4
RNA1{r(A)p.r(C)p.r(C)p.r(C)p.r(A)p.r(A)p.r(U)p.r(G)p.r(G)p.r(C)p.r(A)p.r(G)p.r(C)p.r(C)p.r(C)p.r(C)p.r(U)p.r(A)p.r(A)p.d(T)p.d(T)}|RNA2{r(U)p.r(U)p.r(A)p.r(G)p.r(G)p.r(G)p.r(G)p.r(C)p.r(U)p.r(G)p.r(C)p.r(C)p.r(A)p.r(U)p.r(U)p.r(G)p.r(G)p.r(G)p.r(U)p.d(A)p.d(T)}$$$RNA1{StrandType:ss}|RNA2{StrandType:as}$	64
RNA1{r(A)p.r(C)p.r(G)p.r(A)p.r(A)p.r(G)p.r(C)p.r(C)p.r(C)p.r(A)p.r(A)p.r(G)p.r(C)p.r(C)p.r(A)p.r(U)p.r(A)p.r(G)p.r(A)p.d(T)p.d(T)}|RNA2{r(U)p.r(C)p.r(U)p.r(A)p.r(U)p.r(G)p.r(G)p.r(C)p.r(U)p.r(U)p.r(G)p.r(G)p.r(G)p.r(C)p.r(U)p.r(U)p.r(C)p.r(G)p.r(U)p.d(T)p.d(G)}$$$RNA1{StrandType:ss}|RNA2{StrandType:as}$	77.5

molecular target: UBE2K; assay: reporter assay of Huesken 2005; settings: siRNA

Substance	normalised inhibition (eCFP-eYFP dual reporter) [%]
RNA1{r(U)p.r(G)p.r(A)p.r(A)p.r(G)p.r(G)p.r(A)p.r(G)p.r(G)p.r(A)p.r(A)p.r(G)p.r(A)p.r(U)p.r(A)p.r(C)p.r(C)p.r(A)p.r(A)p.d(T)p.d(T)}|RNA2{r(U)p.r(U)p.r(G)p.r(G)p.r(U)p.r(A)p.r(U)p.r(C)p.r(U)p.r(U)p.r(C)p.r(C)p.r(U)p.r(C)p.r(C)p.r(U)p.r(U)p.r(C)p.r(A)p.d(T)p.d(A)}$$$RNA1{StrandType:ss}|RNA2{StrandType:as}$	82.7
RNA1{r(U)p.r(G)p.r(G)p.r(C)p.r(A)p.r(U)p.r(C)p.r(C)p.r(U)p.r(A)p.r(A)p.r(U)p.r(A)p.r(U)p.r(U)p.r(A)p.r(G)p.r(U)p.r(U)p.d(T)p.d(T)}|RNA2{r(A)p.r(A)p.r(C)p.r(U)p.r(A)p.r(A)p.r(U)p.r(A)p.r(U)p.r(U)p.r(A)p.r(G)p.r(G)p.r(A)p.r(U)p.r(G)p.r(C)p.r(C)p.r(A)p.d(T)p.d(A)}$$$RNA1{StrandType:ss}|RNA2{StrandType:as}$	61.6
RNA1{r(U)p.r(G)p.r(G)p.r(G)p.r(C)p.r(A)p.r(G)p.r(C)p.r(U)p.r(G)p.r(C)p.r(A)p.r(A)p.r(U)p.r(G)p.r(A)p.r(C)p.r(U)p.r(C)p.d(T)p.d(T)}|RNA2{r(G)p.r(A)p.r(G)p.r(U)p.r(C)p.r(A)p.r(U)p.r(U)p.r(G)p.r(C)p.r(A)p.r(G)p.r(C)p.r(U)p.r(G)p.r(C)p.r(C)p.r(C)p.r(A)p.d(T)p.d(T)}$$$RNA1{StrandType:ss}|RNA2{StrandType:as}$	44.2
RNA1{r(U)p.r(G)p.r(U)p.r(A)p.r(G)p.r(A)p.r(U)p.r(G)p.r(A)p.r(G)p.r(A)p.r(A)p.r(U)p.r(U)p.r(U)p.r(U)p.r(A)p.r(C)p.r(A)p.d(T)p.d(T)}|RNA2{r(U)p.r(G)p.r(U)p.r(A)p.r(A)p.r(A)p.r(A)p.r(U)p.r(U)p.r(C)p.r(U)p.r(C)p.r(A)p.r(U)p.r(C)p.r(U)p.r(A)p.r(C)p.r(A)p.d(A)p.d(G)}$$$RNA1{StrandType:ss}|RNA2{StrandType:as}$	89.5
RNA1{r(U)p.r(G)p.r(U)p.r(U)p.r(U)p.r(G)p.r(G)p.r(A)p.r(U)p.r(A)p.r(U)p.r(C)p.r(C)p.r(U)p.r(G)p.r(A)p.r(A)p.r(A)p.r(G)p.d(T)p.d(T)}|RNA2{r(C)p.r(U)p.r(U)p.r(U)p.r(C)p.r(A)p.r(G)p.r(G)p.r(A)p.r(U)p.r(A)p.r(U)p.r(C)p.r(C)p.r(A)p.r(A)p.r(A)p.r(C)p.r(A)p.d(A)p.d(A)}$$$RNA1{StrandType:ss}|RNA2{StrandType:as}$	58.7
RNA1{r(U)p.r(U)p.r(C)p.r(C)p.r(G)p.r(U)p.r(C)p.r(A)p.r(C)p.r(A)p.r(G)p.r(G)p.r(G)p.r(G)p.r(C)p.r(U)p.r(A)p.r(U)p.r(U)p.d(T)p.d(T)}|RNA2{r(A)p.r(A)p.r(U)p.r(A)p.r(G)p.r(C)p.r(C)p.r(C)p.r(C)p.r(U)p.r(G)p.r(U)p.r(G)p.r(A)p.r(C)p.r(G)p.r(G)p.r(A)p.r(A)p.d(C)p.d(T)}$$$RNA1{StrandType:ss}|RNA2{StrandType:as}$	55.5
RNA1{r(U)p.r(U)p.r(G)p.r(U)p.r(A)p.r(G)p.r(A)p.r(U)p.r(G)p.r(A)p.r(G)p.r(A)p.r(A)p.r(U)p.r(U)p.r(U)p.r(U)p.r(A)p.r(C)p.d(T)p.d(T)}|RNA2{r(G)p.r(U)p.r(A)p.r(A)p.r(A)p.r(A)p.r(U)p.r(U)p.r(C)p.r(U)p.r(C)p.r(A)p.r(U)p.r(C)p.r(U)p.r(A)p.r(C)p.r(A)p.r(A)p.d(G)p.d(A)}$$$RNA1{StrandType:ss}|RNA2{StrandType:as}$	55.1
RNA1{r(U)p.r(U)p.r(U)p.r(G)p.r(U)p.r(U)p.r(U)p.r(G)p.r(G)p.r(A)p.r(U)p.r(A)p.r(U)p.r(C)p.r(C)p.r(U)p.r(G)p.r(A)p.r(A)p.d(T)p.d(T)}|RNA2{r(U)p.r(U)p.r(C)p.r(A)p.r(G)p.r(G)p.r(A)p.r(U)p.r(A)p.r(U)p.r(C)p.r(C)p.r(A)p.r(A)p.r(A)p.r(C)p.r(A)p.r(A)p.r(A)p.d(T)p.d(A)}$$$RNA1{StrandType:ss}|RNA2{StrandType:as}$	78.9
RNA1{r(U)p.r(U)p.r(U)p.r(U)p.r(A)p.r(C)p.r(A)p.r(G)p.r(A)p.r(A)p.r(U)p.r(U)p.r(A)p.r(A)p.r(G)p.r(A)p.r(G)p.r(G)p.r(A)p.d(T)p.d(T)}|RNA2{r(U)p.r(C)p.r(C)p.r(U)p.r(C)p.r(U)p.r(U)p.r(A)p.r(A)p.r(U)p.r(U)p.r(C)p.r(U)p.r(G)p.r(U)p.r(A)p.r(A)p.r(A)p.r(A)p.d(T)p.d(T)}$$$RNA1{StrandType:ss}|RNA2{StrandType:as}$	47.6

— the OligoGym collection
